From patent US20050090433A1 (priority 2002, published 2005)
Values after ≈ are worked out from the molar mass of the structure shown. Read-outs that look alike come from different tables or passages of the source.

Tests used:
[1] = test system: Miscellaneous Streptococcus and nontypeable strains; assay: Dalbavancin MIC, baseline isolates of SSTI trial; format: cell-based; conditions: for Dalbavancin MIC, Miscellaneous Streptococcus and nontypeable strains: MITT
[2] = test system: methicillin-resistant S. aureus (MRSA); format: in vivo
Protocol: The effectiveness of the three treatment regimens was determined by assessing the patients' clinical response and the documented or presumed microbiological responses. The primary efficacy endpoint was clinical response at the follow-up visit for the clinically evaluable population. Clinical response, for both EOT and FU visits, was categorized as success (cure or improvement) or failure (including indeterminate results). […] Failure was defined as persistence of one or more local or systemic signs and symptoms of SSTI such that treatment with new or additional systemic antibacterial agents was required for the SSTI.
Microbiological outcome, a secondary efficacy variable, was assessed in the subpopulation of patients who had microbiologically documented SSTI (i.e., at least one identified baseline pathogen). A microbiologic response was assessed for each Gram-positive pathogen identified at baseline (i.e., eradication, presumed eradication, persistence, presumed persistence). For patients for whom follow-up cultures were not performed, the microbiologic responses for baseline pathogens were presumed on the basis of the clinical response. […] At both the EOT and FU visits, colonization and superinfection were assessed. […]

[3] = human, in vivo
Protocol: (§3) Adverse events were recorded and assessed for severity and relationship to study drug. Laboratory data (chemistry panel, CBC with differential, urinalysis) were collected and assessed for changes from baseline and out-of-range values. ECG, physical examination, and vital signs were obtained, and changes from baseline were assessed.

[4] = test system: skin and soft tissue infections (SSTI); assay: Phase II trial in deep skin and soft tissue infections: clinical response; format: in vivo, human; conditions: exploratory subanalysis
Protocol: (§1) This randomized, controlled study evaluated the safety and efficacy of two dose regimens of dalbavancin.
(§2) There were 62 patients randomized into the study, all received at least one dose of study medication. Four study populations were evaluated for safety and efficacy and were defined as follows: The intent-to-treat (I) population included all patients who received at least one dose of study drug (all randomized study subjects).
The effectiveness of the three treatment regimens was determined by assessing the patients' clinical response and the documented or presumed microbiological responses. The primary efficacy endpoint was clinical response at the follow-up visit for the clinically evaluable population. Clinical response, for both EOT and FU visits, was categorized as success (cure or improvement) or failure (including indeterminate results). Patients classified as successes must not have received additional systemic antibacterial treatment for their infection. Failure was defined as persistence of one or more local or systemic signs and symptoms of SSTI such that treatment with new or additional systemic antibacterial agents was required for the SSTI.

[5] = test system: Group B streptococcus; assay: Dalbavancin MIC, baseline isolates of SSTI trial; format: cell-based
[6] = Rat quantitative tissue distribution (QTD) study; conditions: male rats, single IV infusion 20 mg/kg
Protocol: (§4) Excreta and more than 40 different tissues were collected through 70 days post-administration, and the tissue distribution and pharmacokinetics of drug-derived radioactivity were determined.
Rats (3 per time-point) were euthanized at 12, 24, 48, 72, 96, 120, 144, 168, 336, 840, 1176 and 1680 hours post dose for collection of blood, plasma, and tissues (including carcass). All samples were analyzed by LSC.
As part of the QTD studies, bile samples were collected from bile duct cannulated rats (4 animals) through 384 h (16 days) post-dose.

[7] = pH 7.4
[8] = biological target: Bovine albumin (Bos taurus, UniProt P02769); assay: Protein binding by isothermal titration microcalorimetry
Chain of Bovine albumin (P02769 25-607): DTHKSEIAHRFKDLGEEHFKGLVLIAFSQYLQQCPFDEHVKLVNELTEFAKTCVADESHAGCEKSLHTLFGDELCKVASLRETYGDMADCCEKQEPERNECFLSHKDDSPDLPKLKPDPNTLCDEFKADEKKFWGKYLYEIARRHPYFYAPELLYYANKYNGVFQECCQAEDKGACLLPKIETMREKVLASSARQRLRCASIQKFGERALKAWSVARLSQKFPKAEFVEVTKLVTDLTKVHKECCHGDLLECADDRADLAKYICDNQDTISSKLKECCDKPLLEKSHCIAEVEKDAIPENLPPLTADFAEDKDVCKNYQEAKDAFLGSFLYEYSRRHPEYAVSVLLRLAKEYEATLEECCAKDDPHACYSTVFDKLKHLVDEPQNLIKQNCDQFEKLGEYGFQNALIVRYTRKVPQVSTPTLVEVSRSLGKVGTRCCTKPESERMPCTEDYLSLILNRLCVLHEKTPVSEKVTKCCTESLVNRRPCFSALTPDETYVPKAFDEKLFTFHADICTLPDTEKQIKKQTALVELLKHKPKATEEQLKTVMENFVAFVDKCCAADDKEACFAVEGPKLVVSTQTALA
Protocol: (§5) Integrated heat effects, after correction for heats of dilution, were analyzed by non-linear regression using a simple single-site binding model with the standard Microcal ORIGIN software package. Raw data (μcal/sec) for each injection were integrated to give the total heat effect per addition, then divided by amount of injectant to give kcal/mole of injectant. The same integration was applied for control dilution effects, and this was subtracted from the actual titration data. This provided a differential of the binding curve in which the extent of binding is proportional to the total heat liberated (or absorbed). This was then analyzed by non-linear regression methods in terms of various standard binding models.

[9] = test system: Gram-positive isolates, including MRSA; assay: Dalbavancin MIC, Gram-positive isolates of SSTI trial; format: cell-based; conditions: Staphylococcus aureus, read-out: MICs against Gram-positive isolates, including MRSA
[10] = biological target: T1, Human albumin (Homo sapiens, UniProt P02768); assay: Protein binding by isothermal titration microcalorimetry; conditions: Apparent binding affinity Ka, Human albumin, pH 7.4, ± SD of fit
T1 sequence (P02768 25-609): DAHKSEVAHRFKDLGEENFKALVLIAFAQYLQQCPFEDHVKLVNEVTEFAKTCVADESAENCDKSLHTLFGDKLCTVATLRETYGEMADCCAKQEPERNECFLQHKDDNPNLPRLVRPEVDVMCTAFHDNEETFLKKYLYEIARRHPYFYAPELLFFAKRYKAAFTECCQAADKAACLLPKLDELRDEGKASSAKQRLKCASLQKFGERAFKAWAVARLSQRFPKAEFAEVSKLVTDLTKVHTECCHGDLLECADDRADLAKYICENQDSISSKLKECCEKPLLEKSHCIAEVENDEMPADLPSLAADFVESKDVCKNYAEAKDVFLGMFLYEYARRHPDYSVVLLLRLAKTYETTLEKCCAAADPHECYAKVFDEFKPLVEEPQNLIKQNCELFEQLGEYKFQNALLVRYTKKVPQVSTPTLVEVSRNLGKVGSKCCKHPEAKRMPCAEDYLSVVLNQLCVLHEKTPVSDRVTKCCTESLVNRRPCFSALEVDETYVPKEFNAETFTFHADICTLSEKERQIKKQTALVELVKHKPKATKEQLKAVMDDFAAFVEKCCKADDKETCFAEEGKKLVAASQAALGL
Protocol: as §5

[11] = test system: bacteria; assay: Minimum bactericidal concentration; format: cell-based; conditions: 24 h, kill at least 99% of bacteria over 24 hour in vitro; in plasma
Source text: The amount of dalbavancin administered may be any of the dosages disclosed herein.

[12] = biological target: Dog albumin (Canis lupus familiaris, UniProt P49822); assay: Protein binding by isothermal titration microcalorimetry; conditions: Apparent binding affinity Ka, pH 7.4, ± SD of fit
Chain of Dog albumin (P49822 25-608): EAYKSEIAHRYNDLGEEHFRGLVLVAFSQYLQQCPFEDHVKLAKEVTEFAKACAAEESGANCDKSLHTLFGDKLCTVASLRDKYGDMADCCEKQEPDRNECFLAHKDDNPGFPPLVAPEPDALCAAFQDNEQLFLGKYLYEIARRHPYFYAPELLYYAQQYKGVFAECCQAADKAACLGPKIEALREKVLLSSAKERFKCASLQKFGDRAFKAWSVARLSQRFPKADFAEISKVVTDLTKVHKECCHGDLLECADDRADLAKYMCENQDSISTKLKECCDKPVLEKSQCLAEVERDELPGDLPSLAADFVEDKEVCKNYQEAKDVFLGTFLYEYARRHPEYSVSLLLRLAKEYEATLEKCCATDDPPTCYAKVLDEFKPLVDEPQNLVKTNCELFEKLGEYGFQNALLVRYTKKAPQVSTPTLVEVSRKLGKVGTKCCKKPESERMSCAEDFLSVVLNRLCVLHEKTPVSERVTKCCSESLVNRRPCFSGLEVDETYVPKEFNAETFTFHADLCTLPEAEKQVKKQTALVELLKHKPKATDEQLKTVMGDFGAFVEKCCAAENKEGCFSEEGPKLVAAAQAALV
Protocol: as §5

[13] = test system: Gram-positive pathogen; assay: SSTI trial: microbiologic response, all Gram-positive organisms; format: in vivo, human; conditions: single dose; EOT and FU, microbiologically-evaluable and MITT populations
Protocol: as §1, §2
Microbiological outcome, a secondary efficacy variable, was assessed in the subpopulation of patients who had microbiologically documented SSTI (i.e., at least one identified baseline pathogen). A microbiologic response was assessed for each Gram-positive pathogen identified at baseline (i.e., eradication, presumed eradication, persistence, presumed persistence). For patients for whom follow-up cultures were not performed, the microbiologic responses for baseline pathogens were presumed on the basis of the clinical response. Microbiologic response by patient at the EOT and FU visits was graded as success (i.e., all Gram-positive organisms eradicated or presumed eradicated) or failure (i.e., at least one Gram-positive organism persisted or presumed to have persisted, multiple pathogens with partial eradication). At both the EOT and FU visits, colonization and superinfection were assessed. […]

[14] = biological target: Rat albumin (Rattus norvegicus, UniProt P02770); assay: Protein binding by isothermal titration microcalorimetry; conditions: Apparent binding affinity Ka, pH 7.4, ± SD of fit
Chain of Rat albumin (P02770 25-608): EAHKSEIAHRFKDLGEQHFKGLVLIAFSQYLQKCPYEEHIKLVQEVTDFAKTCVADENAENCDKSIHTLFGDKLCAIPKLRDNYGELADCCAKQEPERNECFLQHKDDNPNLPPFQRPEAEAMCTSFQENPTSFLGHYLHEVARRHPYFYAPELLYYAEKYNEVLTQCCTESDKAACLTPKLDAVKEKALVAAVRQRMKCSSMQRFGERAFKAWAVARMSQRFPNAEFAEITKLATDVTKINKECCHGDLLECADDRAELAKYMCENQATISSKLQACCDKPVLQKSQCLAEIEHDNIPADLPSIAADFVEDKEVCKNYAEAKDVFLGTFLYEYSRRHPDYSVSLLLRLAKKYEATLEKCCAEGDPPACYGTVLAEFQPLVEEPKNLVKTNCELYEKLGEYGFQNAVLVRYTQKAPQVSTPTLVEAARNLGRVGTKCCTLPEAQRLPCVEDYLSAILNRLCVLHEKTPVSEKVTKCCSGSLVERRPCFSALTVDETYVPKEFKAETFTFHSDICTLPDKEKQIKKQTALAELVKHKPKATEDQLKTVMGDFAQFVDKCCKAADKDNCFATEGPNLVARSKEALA
Protocol: as §5

[15] = test system: Streptococcus pyogenes; assay: Dalbavancin MIC, baseline isolates of SSTI trial; format: cell-based; conditions: read-out: Dalbavancin MIC, Streptococcus pyogenes, MITT, two-dose group
[16] = Safety assessments in healthy subjects; conditions: single 1000 mg IV
Protocol: as §3

[17] = test system: human α-glycoprotein; conditions: pH 7.4
Protocol: as §5

[18] = test system: S. aureus; assay: Dalbavancin MIC, baseline isolates of SSTI trial; format: cell-based; conditions: MITT
[19] = biological target: T1, Human albumin; conditions: pH 7.4
Protocol: as §5

[20] = SSTI trial: adverse events; format: in vivo, human
Protocol: as §1
Each patient who received at least one dose of study drug (ITT population) was evaluated for drug safety through monitoring of adverse events (AE), including abnormal clinical laboratory test results and vital signs. AE were rated by the investigator as to their severity (mild, moderate, severe, life-threatening), and by the relationship to the study drug (not related, unlikely related, possibly related, or probably related).

[21] = rat, in vivo
Protocol: as §4
Following dose administration, urine and feces were collected at 24 hour intervals to 14, 36, and 70 days after the dose (3 rats/final collection time). Water and methanol cage washes were also collected. Carcasses were analyzed at the end of the collection period. AU samples were analyzed for total radioactivity content by liquid scintillation counting (LSC).

[22] = two-dose 1000 mg IV day 1, 500 mg day 8

CN[C@H]1C(=O)N[C@@H]2Cc3ccc(cc3)Oc3cc4cc(c3O[C@@H]3O[C@H](C(=O)O)[C@@H](O)[C@H](O)[C@H]3NC(=O)CCCCCCCCC(C)C)Oc3ccc(cc3Cl)[C@@H](O)[C@@H]3NC(=O)[C@H](NC(=O)[C@@H]4NC(=O)[C@@H](NC2=O)c2cc(cc(O)c2Cl)Oc2cc1ccc2O)c1ccc(O)c(c1)-c1c(O[C@H]2O[C@H](CO)[C@@H](O)[C@H](O)[C@@H]2O)cc(O)cc1[C@@H](C(=O)NCCCN(C)C)NC3=O [Dalbavancin]
Dalbavancin MIC, Miscellaneous Streptococcus and nontypeable strains ([1]; standard of care group): 4 (0.016) mg/L | Dalbavancin MIC, Miscellaneous Streptococcus and nontypeable strains ([1]; two-dose group): 2 (0.016) mg/L | MIC ([1]; Streptococcus, read-out: Dalbavancin MIC, Miscellaneous Streptococcus and nontypeable strains, MITT, single dose group): 0.016 µg/mL (≈ 8.81 nM) | Clinical success rate at FU, MITT patients with MRSA ([2]; single-dose 1100 mg IV day 1): 50% | Clinical success rate at FU, MITT patients with MRSA [2, 22]: 80% | Eosinophilia, AE possibly related to study medication [3]: 500 µL⁻¹ | Intensity of reported AEs [3]: all of mild intensity | Clinical success rate, patients with deep or complicated SSTI at baseline ([4]; single-dose 1100 mg IV day 1): 58.3% | Clinical success rate, patients with deep or complicated SSTI at baseline [4, 22]: 93.8% | Dalbavancin MIC, Group B streptococcus ([5]; MITT, standard of care group): 2 (0.016) mg/L | MIC ([5]; Streptococcus, read-out: Dalbavancin MIC, Group B streptococcus, MITT, two-dose group): 0.016 µg/mL (≈ 8.81 nM) | Skin concentrations of drug-derived radioactivity relative to plasma [6]: as high as or higher than in plasma | Solubility in the presence of HSA [7]: significantly increased | Kd [8]: 7.25 µM | MIC [9]: 0.016 to 0.25 µg/mL (≈ 8.81 to 138 nM) | Kd ([10]; 25° C.): 7.41 µM | Kd ([10]; 37° C.): 7.52 µM | MBC [11]: 4 to 10 µg/mL (≈ 2200 to 5500 nM) | Kd ([12]; 25° C.): 16.1 µM | Kd ([12]; 37° C.): 20 µM | Microbiologic success rates at both visits (summary) [13]: < 40% | Kd ([14]; 25° C.): 3.23 µM | Kd ([14]; 37° C.): 3.57 µM | MIC [15]: 0.016 µg/mL (≈ 8.81 nM) | Deaths or serious adverse events [16]: No subject deaths or serious adverse events | Calculated percent Binding, Human α-glycoprotein ([17]; 1 μM): 73.0% | Calculated percent Binding, Human α-glycoprotein ([17]; 10 μM): 68.2% | Calculated percent Binding, Human α-glycoprotein ([17]; 100 μM): 26.2% | Calculated percent Binding, Human α-glycoprotein ([17]; 165 μM): 16.9% | Calculated percent Binding, Human α-glycoprotein ([17]; 250 μM): 11.4% | Calculated percent Binding, Human α-glycoprotein ([17]; 500 μM): 5.9% | Dalbavancin MIC range, All S. aureus ([18]; standard of care group): 10 (0.016-0.25) mg/L | Dalbavancin MIC, All S. aureus ([18]; two-dose group): 11 (0.12) mg/L | Calculated percent Binding, Human albumin ([19]; 1 μM): 98.8% | Calculated percent Binding, Human albumin ([19]; 10 μM): 98.8% | Calculated percent Binding, Human albumin ([19]; 100 μM): 98.7% | Calculated percent Binding, Human albumin ([19]; 165 μM): 98.6% | Calculated percent Binding, Human albumin ([19]; 250 μM): 98.5% | Calculated percent Binding, Human albumin ([19]; 500 μM): 98.0% | AE leading to discontinuation of study medication ([20]; human, in vivo): 0% | ≧1 AE ([20]; human, in vivo): 95% | ≧1 severe AE ([20]; human, in vivo): 2 (10%) | Hepatotoxicity or nephrotoxicity ([20]; in vivo): no evidence that dalbavancin induces any degree of clinically significant hepatotoxicity or nephrotoxicity | Serious adverse events related to study drug ([20]; in vivo): no serious adverse events related to study drug treatment | Tolerability ([20]; in vivo): well tolerated | ≧1 AE possibly/probably related to treatment ([20]; single-dose (N = 20)): 55% | ≧1 AE possibly/probably related to treatment ([20]; two-dose (N = 21)): 48% | Dose remaining in the carcass ([21]; male, Sprague-Dawley, 1680 h): 4.5% | Radioactivity administered eliminated in urine and feces within the first week ([21]; iv, 20 mg/kg): Approximately half | Share of excreted radioactivity eliminated in feces ([21]; iv, 20 mg/kg): ⅓ | Share of excreted radioactivity eliminated in urine ([21]; iv, 20 mg/kg): ⅔
